Measured values reported in US20030022906A1, “Use of pde v inhibitors” (priority 2000, published 2003).
One block for each compound: values may come before it.

Legend:
[1] = test system: normotensive Wistar rats; test: Telemetric measurements of blood pressure and heart rate over 24 hours in normotensive Wistar rats; type: in vivo, rat; conditions: 30, 100 and 300 mg/kg p.o.; telemetry over 24 hours
[2] = test system: anaesthetized dogs with open thorax; test: Nitrate interaction in anaesthetized dogs with open thorax (i.v. infusion of isosorbitol dinitrate); type: in vivo, dog; conditions: i.d., permanent i.v. infusion of isosorbitol dinitrate 50 μg/kg of body weight/hour
Procedure: Investigations of Nitrate Interaction of EMD 221829 and Sildenafil
The model and administration are as in B, but both test substances are administered with simultaneous permanent i.v. infusion of isosorbitol dinitrate (50 μg/kg of body weight/hour).

[3] = test system: spontaneously hypertensive rats; test: Nitrate interaction in spontaneously hypertensive rats; type: in vivo, rat; conditions: i.v. cumulative 0.1, 0.3, 1, 3 or 10 mg/kg; infusion of isosorbitol dinitrate 100 μg/kg of body weight/hour
Procedure: Nitrate Interaction in Spontaneously Hypertensive Rats
Method: surgical instrumentation and measurement of blood pressure and heart rate after intravenous cumulative administration of either EMD 221829 or sildenafil (0.1, 0.3, 1, 3 or 10 mg/kg of body weight) with simultaneous infusion of isosorbitol dinitrate (100 μg/kg of body weight/hour).

[4] = test system: spontaneously hypertensive rats; test: Telemetric measurements of blood pressure and heart rate over 24 hours in spontaneously hypertensive rats; type: in vivo, rat; conditions: 3, 10 and 30 mg/kg p.o.; telemetry over 24 hours
Procedure: Telemetric Measurements of Blood Pressure and Heart Rate Over 24 Hours in Spontaneously Hypertensive Rats
Measurements of 3, 10 and 30 mg of substance/1 kg of body weight/p.o.

[5] = test system: anaesthetized dogs with closed thorax; test: Erectile function in anaesthetized dogs with closed thorax (pressure in corpus cavernosum rigidum); type: in vivo, dog; conditions: 1 mg of substance/1 kg of body weight i.d.; erection initiated by stimulation of the nervus pelvinus
Procedure: (§1) All dose amounts are i.d. (intraduodenal), unless stated otherwise.
(§2) Measurements of Erectile Function in Anaesthetized Dogs with Closed Thorax
Erections of various extent were initiated by stimulation variation of the nervus pelvinus. The pressure in the corpus cavernosum rigidum [CCR] was measured.

[6] = test system: anaesthetized dogs with open thorax; test: Haemodynamics in anaesthetized dogs with open thorax; type: in vivo, dog
Description: as §1

[7] = test system: anaesthetized dogs with closed thorax; test: Blood pressure and heart rate measured at the same time in anaesthetized dogs with closed thorax; type: in vivo, dog; conditions: 1 mg/kg i.d.
Procedure: as §1, §2
At the same time, the blood pressure and heart rate were measured.

[8] = "in this dose" (100 mg of substance/1 kg of body weight) i.d.

Compound: CCCc1nn(C)c2c(=O)[nH]c(-c3cc(S(=O)(=O)N4CCN(C)CC4)ccc3OCC)nc12 [sildenafil, reference compound]
- blood pressure [1]: significant dose-dependent reduction
- heart rate [1]: increase
- changes in blood pressure and heart rate with simultaneous administration of nitrate [2]: significantly increased
- blood pressure [3]: dose-dependent drop
- heart rate [3]: increase
- blood pressure [4]: significant dose-dependent reduction
- stimulation of erection (pressure in the corpus cavernosum rigidum) [5]: Corresponding results
- blood pressure [6, 8]: reduction
- heart rate [6, 8]: increase

- haemodynamic parameters compared with sildenafil ([6]; 1 mg of substance/1 kg of body weight i.d.): clear difference
Compound: COc1ccc(CNc2nc(C3CCC(C(=O)O)CC3)nc3sc4ccccc4c23)cc1Cl.NCCO (stereo not drawn) [EMD 221829, trans-4-[4-(3-chloro-4-methoxybenzylamino)benzo[4,5]-thieno[2,3-d]pyrimidin-2-yl]cyclohexanecarboxylic acid, ethanolamine salt]
- blood pressure [1]: no changes
- heart rate [1]: no changes
- effect on haemodynamic parameters (blood pressure and heart rate) [7]: no effect
- changes in blood pressure and heart rate with simultaneous administration of nitrate [2]: no changes
- blood pressure [3]: no change
- heart rate [3]: no change
- blood pressure [4]: no change
- stimulation of erection (pressure in the corpus cavernosum rigidum) [5]: stimulates submaximal erection
- cardiovascular side effects (reduction in blood pressure with reflex increase in heart rate) ([6]; i.d.): no cardiovascular side effects
- dose from which effects on the blood pressure and heart rate are measurable ([6]; i.d.): ≥ 100 mg of substance/1 kg of body weight
